Laboratory results from paper PMC5365251, “Biophysical assay for tethered signaling reactions reveals tether-controlled activity for the phosphatase SHP-1” (Science Advances, 2017).

Legend:
[1] = test system: phosphorylated ITIM peptide on PEG28; assay: Calculation of local concentration, dephosphorylation time and rate enhancement from fitted parameters; parameters: species or system mouse
Protocol: The tethered enzymatic SPR assay also produced an estimate for the reach parameter (L), which was 23 nm. This number corresponds to a phosphorylated substrate experiencing a maximum local SHP-1 concentration of 45 μM when tethered, compared to, for example, a concentration of 1 μM in solution (Fig. 2A) or in the cytoplasm of immune cells (see Discussion).
Activatory and inhibitory immune receptors are both known to cluster in the plasma membrane ([11]–[15]), but the extent and consequences of clustering remain poorly understood. In the absence of clustering, a phosphorylation site on the cytoplasmic tails of these receptors will experience the low ~1-μM concentration of cytoplasmic SHP-1 [based on 280,000 copies of SHP-1 in cytotoxic T cells ([30]) with a radius of 5 μm]. Tethering of SHP-1 to nonclustered immune receptors at distances >50 nm results in even lower concentrations (for example, 0.04 μM when receptors are 50-nm apart), but when clustered within 5 nm, we can now estimate that this phosphorylated site will experience an SHP-1 concentration of 45 μM (Fig. 8A). […] These concentrations are calculated using the formula for σ with L = 23 nm for r = 5 and 50 nm (see Materials and Methods). We note that this is based on a reach of L = 23 nm, which represents SHP-1 bound to an ITIM on PEG28 dephosphorylating another ITIM on PEG28.
The combined effects induced by SHP-1 tethering on allosteric activation (20-fold) and local substrate concentration (45-fold) can be summarized by calculating the dephosphorylation rate ([SHP-1] × kcat* ).
A key component of the models (described below) is the calculation of the local substrate concentration that a tethered enzyme experiences. We assume that the motion of an unbound phosphorylated peptide (state A) and the motion of SHP-1 bound to a phosphorylated peptide (state B) can both be approximated by the worm-like chain model, which is a widely used polymer model. […]

PEG28-ITIM = assay: Anti-phosphotyrosine antibody injected after SHP-1 on SPR chip: surviving phosphotyrosines; assay type: biochemical, mouse
Protocol: To create a substrate surface for SHP-1 in SPR, we coated a surface with peptides containing an ITIM sequence, from the […] of the inhibitory receptor LAIR-1, with a 28-repeat polyethylene glycol (PEG) spacer (PEG28-ITIM; Table 1). When SHP-1 was injected over this surface, we observed a complicated curve with an initial binding phase that was quickly followed by a reduction in binding despite continuous injection of SHP-1 (Fig. 2A). To convert the arbitrary response units reported by the SPR instrument to a more meaningful unit, we normalized this curve to maximum binding, assuming a one-to-one interaction with peptide (see Materials and Methods).
Fig. 2 An SPR assay recovers five independent biophysical/biochemical constants characterizing tethered enzymatic reactions by SHP-1. (A) Representative SPR trace (black dots) for SHP-1 injected over a surface immobilized with 48.5 RU of an ITIM peptide derived from LAIR-1 on a 28-repeat PEG linker (PEG28-ITIM). A fit of the MPDPDE model (red line) provides estimates for the indicated parameters. Early time data and fit are shown on the right. S1. […] (C) Schematic of reactions taking place when SHP-1 is injected over a surface of immobilized phosphorylated peptides. […]

SHP-1: murine SHP-1 tyrosine phosphatase with an N-terminal 6× His tag, expressed in E. coli
increase in overall dephosphorylation rate when tethered and clustered ([1]; [SHP-1] × kcat*, 45 μM × 0.0118 versus 1 μM × 0.000603 μM^-1 s^-1): 900 fold | increase in SHP-1 (local substrate) concentration on tethering to clustered receptors ([1]; solution 1 μM versus tethered and clustered 45 μM): 45 fold | reduction of reaction time by tethering ([1]; time to 50% dephosphorylation with versus without tethering): 125 fold | dephosphorylation of immobilised peptide (in words) (PEG28-ITIM; anti-phosphotyrosine antibody (clone 4G10) injected after SHP-1 on SPR chip, PEG28-ITIM): near complete dephosphorylation | anti-phosphotyrosine antibody binding after SHP-1 injection (in words) (PEG28-ITIM; experimental flow cell compared to buffer-injected control with equivalent peptide levels, Fig. 2B): reduced binding
